Drawing on publication PMC12250624, “Anti-Amyloid Aggregation Effects of Gobaishi (Galla chinensis) and Its Active Constituents” (Molecules, 2025), this text covers EC50 for 1 compound.

The assay has as its target T1, Aβ42 (amyloid-beta) (Homo sapiens, UniProt P05067).
T1 construct: gene APP; Aβ42
The assay is described as follows: ThT fibril aggregation assay, […] Aβ[…] h at […] °C. The assay is classed as biochemical.

T1 sequence (P05067 672-713): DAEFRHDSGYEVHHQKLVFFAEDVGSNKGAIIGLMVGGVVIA

On to `O=C(/C=C/c1ccc(O)c(O)c1)O[C@H](Cc1ccc(O)c(O)c1)C(=O)O` [Rosmarinic acid], for which the EC50 (as a rule, the midpoint of the concentration-response curve) came out at 15 µM.
